Test results published in patent publication US8575197B2, “Pyrolinone derivative and pharmaceutical composition comprising the same” (Shionogi & Co., Ltd., priority 2008, dated 2013).

These compounds were tested against human P2X3 receptor (Homo sapiens (Human), UniProt P56373) (assay: P2X3 receptor inhibition, ATP-evoked Fluo-3 calcium fluorescence (FDSS 3000)). Details: C6BU-1 cell transfected with human P2X3 receptor gene; ATP-evoked Fluo-3 fluorescence.
Format: cell-based
Outline: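 C6BU-1 cells stably transfected with human P2X3, loaded with 4 μM Fluo-3-AM for 1 h at 37 °C in HEPES buffer pH 7.5 with probenecid. Compound added 5 min before 40 nM ATP solution; fluorescence followed 3 min. IC50 from ratio of peak post-ATP to baseline fluorescence.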

Sequence of human P2X3 receptor (P56373 whole entry): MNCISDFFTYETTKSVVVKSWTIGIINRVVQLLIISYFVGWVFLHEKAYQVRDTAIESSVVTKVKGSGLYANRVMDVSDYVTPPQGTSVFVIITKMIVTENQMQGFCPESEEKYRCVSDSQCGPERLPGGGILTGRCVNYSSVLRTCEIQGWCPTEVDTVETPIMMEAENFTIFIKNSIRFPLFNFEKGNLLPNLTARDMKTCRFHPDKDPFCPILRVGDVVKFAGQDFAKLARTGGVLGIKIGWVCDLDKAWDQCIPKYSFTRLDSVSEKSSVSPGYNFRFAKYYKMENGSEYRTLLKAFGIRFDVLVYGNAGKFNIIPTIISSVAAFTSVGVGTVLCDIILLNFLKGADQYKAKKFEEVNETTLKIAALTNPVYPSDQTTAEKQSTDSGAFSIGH

**Q.** Which IC50 does the source give for `COCc1ccccc1C1C(C(=O)CC(C)C)=C(O)C(=O)N1c1ccc(-c2cscn2)cc1` (stereo not shown) [Compound I-422] here?
**A.** The IC50 was 361 nM.

**Q.** `COCc1ccccc1C1C(C(=O)CC(C)C)=C(O)C(=O)N1c1ccc(SC)cc1` (stereo not shown) [Compound I-437] was tested. Which IC50 did it give?
**A.** Its IC50 is 111 nM.

**Q.** `Cc1ncccc1C1C(C(=O)C(C)(C)C)=C(O)C(=O)N1c1ccc(-c2ccco2)cc1` (stereo not shown) [Compound I-142] was tested. Which IC50 did it give?
**A.** Its IC50 is 315 nM.

**Q.** How did the IC50 turn out when `CC(C)C(=O)C1=C(O)C(=O)N(c2ccc(-c3ccsc3)cc2)C1c1cccnc1N1CCOCC1` (stereo not shown) [Compound I-525] was run?
**A.** The IC50 was 18 nM.

**Q.** With `COc1ccccc1C1c2c(C(C)(C)C)n[nH]c2C(=O)N1c1ccc(C(C)(C)C)cc1` (stereo not shown) [II-003] as the compound, how does the IC50 read?
**A.** Its IC50 is 140 nM.

**Q.** How did the IC50 turn out when `COc1ccccc1C1c2c(C(C)(C)C)n[nH]c2C(=O)N1c1ccc(CN(C)C)cc1` (stereo not shown) [II-072] was run?
**A.** Its IC50 is 739 nM.

**Q.** Which IC50 does the source give for `COCOc1ccccc1C1C(C(=O)C(C)C)=C(O)C(=O)N1c1ccc(-c2csc(C)c2)cc1` (stereo not shown) [Compound I-262] here?
**A.** The IC50 was 16 nM.

**Q.** With `CC(C)C(=O)C1=C(O)C(=O)N(c2ccc(-c3ccsc3)cc2)C1c1ccccc1OCC(N)=O` (stereo not shown) [Compound I-189] as the compound, how does the IC50 read?
**A.** The IC50 was 14 nM.

**Q.** How did the IC50 turn out when `COCc1ccccc1C1C(C(=O)C(C)(C)C)=C(O)C(=O)N1c1ccc(-c2cc(C)no2)cc1` (stereo not shown) [Compound I-050] was run?
**A.** Its IC50 is 642 nM.

**Q.** For `CCOc1ccccc1C1C(C(=O)C(C)(C)C)=C(O)C(=O)N1c1ccc(-c2ccon2)cc1` (stereo not shown) [Compound I-059], which IC50 is on record?
**A.** The IC50 was 260 nM.

**Q.** `Cc1ncccc1C1C(C(=O)C(C)(C)C)=C(O)C(=O)N1c1ccc(-c2cccs2)cc1` (stereo not shown) [Compound I-141] was tested. Which IC50 did it give?
**A.** Its IC50 is 346 nM.

**Q.** With `COc1ccccc1C1c2c(C(C)(C)C)n[nH]c2C(=O)N1c1ccc(Br)cn1` (stereo not shown) [II-246] as the compound, how does the IC50 read?
**A.** The IC50 was 871 nM.

**Q.** Which IC50 does the source give for `CC(C)C(=O)C1=C(O)C(=O)N(c2ccc(-c3ccsc3)cc2)C1c1ccccc1C(F)(F)F` (stereo not shown) [Compound I-300] here?
**A.** The IC50 was 114 nM.

**Q.** `COCCOc1ncccc1C1C(C(=O)C(C)C)=C(O)C(=O)N1c1ccc(-c2ccc(C)s2)cc1` (stereo not shown) [Compound I-267] was tested. Which IC50 did it give?
**A.** The IC50 was 14 nM.

**Q.** With `COCCOc1ccccc1C1C(C(=O)C(C)C)=C(O)C(=O)N1c1ccc(-c2ccon2)cc1` (stereo not shown) [Compound I-298] as the compound, how does the IC50 read?
**A.** Its IC50 is 269 nM.

**Q.** `COc1ccccc1C1C(C(=O)C(C)(C)CO)=C(O)C(=O)N1c1ccc(SC)cc1` (stereo not shown) [Compound I-068] was tested. Which IC50 did it give?
**A.** The IC50 was 305 nM.

**Q.** `CC(C)(C)c1n[nH]c2c1C(c1cccc[n+]1[O-])N(c1ccc(-c3cccs3)cc1)C2=O` (stereo not shown) [II-164] was tested. Which IC50 did it give?
**A.** The IC50 was 36 nM.

**Q.** For `CSc1ccc(N2C(=O)C(O)=C(C(=O)C(C)C)C2c2ccccc2OC(C)C)cc1` (stereo not shown) [Compound I-474], which IC50 is on record?
**A.** The IC50 was 71 nM.

**Q.** Which IC50 does the source give for `CC(C)C(=O)C1=C(O)C(=O)N(c2ccc(-c3ccsc3)cc2)C1c1ccccc1N1CCOCC1` (stereo not shown) [Compound I-443] here?
**A.** The IC50 was 6 nM.

**Q.** Which IC50 does the source give for `COc1ccccc1C1c2c(C(C)(CO)CO)n[nH]c2C(=O)N1c1ccc(-c2ccsc2)cc1` (stereo not shown) [II-266] here?
**A.** The IC50 was 7 nM.

**Q.** For `COc1ccccc1C1C(C(=O)C(C)C)=C(O)C(=O)N1c1ccc(-c2ccsc2)c(CO)c1` (stereo not shown) [Compound I-241], which IC50 is on record?
**A.** Its IC50 is 822 nM.

**Q.** With `CC(C)C(=O)C1=C(O)C(=O)N(c2ccc(-c3ccsc3)cc2)C1c1ccccc1OCc1nnn[nH]1` (stereo not shown) [Compound I-217] as the compound, how does the IC50 read?
**A.** The IC50 was 12 nM.

**Q.** How did the IC50 turn out when `COc1ccc(N2C(=O)c3[nH]nc(C(C)(C)C)c3C2c2ccccc2OC)cc1` (stereo not shown) [II-098] was run?
**A.** The IC50 was 761 nM.

**Q.** `COCCOc1ccccc1C1C(C(=O)C(C)C)=C(O)C(=O)N1c1ccc(-c2cccs2)cc1` (stereo not shown) [Compound I-226] was tested. Which IC50 did it give?
**A.** The IC50 was 12 nM.

**Q.** How did the IC50 turn out when `CSc1ccc(N2C(=O)c3[nH]nc(C(C)(C)C)c3C2c2ccccc2OCCO)cc1` (stereo not shown) [II-013] was run?
**A.** Its IC50 is 19 nM.

**Q.** `COc1cc(F)ccc1C1C(C(=O)CC(C)C)=C(O)C(=O)N1c1ccc(-c2ccsc2)cc1` (stereo not shown) [Compound I-326] was tested. Which IC50 did it give?
**A.** The IC50 was 27 nM.

**Q.** With `CC(C)C(=O)C1=C(O)C(=O)N(c2ccc(-c3ccsc3)cc2)C1c1ccccc1C#N` (stereo not shown) [Compound I-244] as the compound, how does the IC50 read?
**A.** The IC50 was 27 nM.

**Q.** How did the IC50 turn out when `COCCOc1ncccc1C1C(C(=O)C(C)C)=C(O)C(=O)N1c1ccc(-c2ccoc2)cc1` (stereo not shown) [Compound I-234] was run?
**A.** Its IC50 is 56 nM.

**Q.** How did the IC50 turn out when `CC(C)c1n[nH]c2c1C(c1ccccc1OCC#N)N(c1ccc(-c3ccsc3)cc1)C2=O` (stereo not shown) [II-127] was run?
**A.** Its IC50 is 4 nM.

**Q.** With `COCCCOc1ncccc1C1C(C(=O)C(C)C)=C(O)C(=O)N1c1ccc(-c2ccsc2)cc1` (stereo not shown) [Compound I-565] as the compound, how does the IC50 read?
**A.** The IC50 was 13 nM.

**Q.** How did the IC50 turn out when `CC(C)c1n[nH]c2c1C(c1ccccn1)N(c1ccc(-c3ccsc3)cc1)C2=O` (stereo not shown) [II-233] was run?
**A.** The IC50 was 92 nM.

**Q.** `COc1ncccc1C1C(C(=O)C(C)(C)C)=C(O)C(=O)N1c1ccc(-c2ccsc2)nc1` (stereo not shown) [Compound I-108] was tested. Which IC50 did it give?
**A.** The IC50 was 192 nM.

**Q.** For `COCCOc1ccccc1C1C(C(=O)CC(C)C)=C(O)C(=O)N1c1ccc(-c2cscn2)cc1` (stereo not shown) [Compound I-421], which IC50 is on record?
**A.** The IC50 was 191 nM.

**Q.** For `COc1ccccc1C1c2c(C(C)C)n[nH]c2C(=O)N1c1ccc(-c2ccsc2)c(CO)c1` (stereo not shown) [II-243], which IC50 is on record?
**A.** The IC50 was 138 nM.

**Q.** With `COc1ccc(C2(c3n[nH]c4c3C(c3ccccc3OC)N(c3ccc(-c5ccon5)cc3)C4=O)CC2)cc1` (stereo not shown) [II-198] as the compound, how does the IC50 read?
**A.** The IC50 was 123 nM.

**Q.** How did the IC50 turn out when `COc1ccc(C(=O)C2=C(O)C(=O)N(c3ccc(-c4cc(C)on4)cc3)C2c2ccccc2OC)cc1` (stereo not shown) [Compound I-480] was run?
**A.** Its IC50 is 42 nM.

**Q.** With `CC(C)c1n[nH]c2c1C(c1ccccc1NS(C)(=O)=O)N(c1ccc(-c3ccsc3)cc1)C2=O` (stereo not shown) [II-088] as the compound, how does the IC50 read?
**A.** Its IC50 is 4 nM.

**Q.** With `CC(C)(C)C(=O)C1=C(O)C(=O)N(c2ccc(-c3cccs3)cc2)C1c1ccccc1OCC(=O)O` (stereo not shown) [Compound I-119] as the compound, how does the IC50 read?
**A.** Its IC50 is 98 nM.

**Q.** How did the IC50 turn out when `COc1ccccc1C1C(C(=O)C2CC2)=C(O)C(=O)N1c1ccc(-c2ccsc2)cc1` (stereo not shown) [Compound I-218] was run?
**A.** The IC50 was 73 nM.

**Q.** Which IC50 does the source give for `CC(C)C(=O)C1=C(O)C(=O)N(c2ccc(-c3ccsc3)cc2)C1c1ccccc1OCC#N` (stereo not shown) [Compound I-183] here?
**A.** Its IC50 is 4 nM.

**Q.** How did the IC50 turn out when `Cc1nc(-c2ccc(N3C(=O)C(O)=C(C(=O)C(C)C)C3c3cccnc3OCCO)cc2)no1` (stereo not shown) [Compound I-178] was run?
**A.** Its IC50 is 374 nM.

**Q.** How did the IC50 turn out when `CC(C)(C)c1n[nH]c2c1C(c1cccnc1OCCO)N(c1ccc(-c3ccco3)cc1)C2=O` (stereo not shown) [II-043] was run?
**A.** The IC50 was 17 nM.

**Q.** Which IC50 does the source give for `COc1ncccc1C1c2c(C(C)(C)C)n[nH]c2C(=O)N1c1ccc(-c2cccs2)cn1` (stereo not shown) [II-260] here?
**A.** Its IC50 is 36 nM.

**Q.** With `Cc1ccc(-c2ccc(N3C(=O)C(O)=C(C(=O)CC(C)C)C3c3ccccc3OC(F)F)cc2)s1` (stereo not shown) [Compound I-337] as the compound, how does the IC50 read?
**A.** Its IC50 is 103 nM.

**Q.** For `CC(C)c1n[nH]c2c1C(c1ccccc1NC(N)=O)N(c1ccc(-c3ccsc3)cc1)C2=O` (stereo not shown) [II-087], which IC50 is on record?
**A.** Its IC50 is 9 nM.

**Q.** For `O=C(C1=C(O)C(=O)N(c2ccc(-c3ccon3)cc2)C1C1CCCCC1)c1ccc(Br)cc1` (stereo not shown) [Compound I-016], which IC50 is on record?
**A.** Its IC50 is 79 nM.

**Q.** For `Cc1cc(-c2ccc(N3C(=O)C(O)=C(C(=O)CC(C)C)C3c3ccccc3OC(F)(F)F)cc2)cs1` (stereo not shown) [Compound I-378], which IC50 is on record?
**A.** Its IC50 is 192 nM.

**Q.** With `CC(C)(C)C(=O)C1=C(O)C(=O)N(c2ccc(-c3ccsc3)cc2)C1c1ccccc1OCC(N)=O` (stereo not shown) [Compound I-151] as the compound, how does the IC50 read?
**A.** Its IC50 is 8 nM.

**Q.** Which IC50 does the source give for `COc1ccccc1C1C(S(=O)(=O)C(C)C)=C(O)C(=O)N1c1ccc(-c2ccc(C)o2)cc1` (stereo not shown) [Compound I-467] here?
**A.** Its IC50 is 286 nM.

**Q.** `CC(C)C(=O)C1=C(O)C(=O)N(c2ccc(-c3ccsc3)cc2)C1c1ccccc1OCCCO` (stereo not shown) [Compound I-429] was tested. Which IC50 did it give?
**A.** The IC50 was 7 nM.

**Q.** How did the IC50 turn out when `COc1ccccc1C1c2c(-c3ccco3)n[nH]c2C(=O)N1c1ccc(-c2ccsc2)cc1` (stereo not shown) [II-178] was run?
**A.** The IC50 was 149 nM.

**Q.** How did the IC50 turn out when `COc1ccccc1C1c2c(C(C)(C)C)n[nH]c2C(=O)N1c1ccc(-c2ccsc2Cl)cc1` (stereo not shown) [II-272] was run?
**A.** The IC50 was 392 nM.

**Q.** For `CCOc1ncccc1C1C(C(=O)CC(C)C)=C(O)C(=O)N1c1ccc(-c2ccsc2)cc1` (stereo not shown) [Compound I-440], which IC50 is on record?
**A.** Its IC50 is 35 nM.

**Q.** How did the IC50 turn out when `COc1ccc(C(=O)C2=C(O)C(=O)N(c3nc4ccc(OC)cc4s3)C2c2ccccc2OCCO)cc1` (stereo not shown) [Compound I-126] was run?
**A.** The IC50 was 15 nM.

**Q.** For `CC(C)CC(=O)C1=C(O)C(=O)N(c2ccc(-c3ccsc3)cc2)C1c1ccccc1OC(C)C` (stereo not shown) [Compound I-293], which IC50 is on record?
**A.** The IC50 was 12 nM.
